Data: article PMC11566907, “Accelerated hit identification with target evaluation, deep learning and automated labs: prospective validation in IRAK1” (Journal of Cheminformatics, 2024)
pIC50: −log10 of the molar value. Read-outs that look alike come from different tables or passages of the source.

Legend:
IRAK1 [1] = molecular target: T1, IRAK1 (Homo sapiens, UniProt P51617); experiment: LanthaScreen Eu Kinase Binding Assay for IRAK1, hit dose-response assay (DRC); details: for pIC50: read-out: DRC result, IC50; for IC50: read-out: DRC result, pIC50 (converted); for DRC result, activity class: class by pIC50 value
T1 construct: purchased BPS Bioscience Inc. 40202
Excerpt: The experimental method of LanthaScreen^TM Eu Kinase Binding Assay for IRAK1 was developed based on the Invitrogen^TM IRAK1-GST LanthaScreen^TM binding assay. Purified recombinant IRAK1-His (cat. # 40202) was purchased from BPS Bioscience Inc. (San Diego, CA, USA). Kinase tracer 236 (cat. # PR9078A) was purchased from Thermo Fisher Scientific Inc. (Waltham, MA, USA). Eu-W1024-anti-6xHis antibody (cat. #AD0400) and 384-well white ProxiPlates^TM (cat. # 6008289) were purchased from Perkin Elmer, Inc. (Waltham, MA, USA). Echo-qualified 384 well COC low dead volume source microplates (cat. #001-16128) and Echo-qualified 384 well polypropylene microplates (cat. #001-14615) were purchased from Beckman Coulter Inc.(Indianapolis, IN, USA). The assay was carried out in an enclosed workcell with subdued lighting. All reagents were prepared in the assay buffer (50 mM HEPES, 10 mM MgCl 2 , 1 mM EGTA, 0.01% Brij-35, 1 mM DTT) and kept on ice. These included 2 x tracer 236 (0.2 μ M), 2 x IRAK1 /antibody solution (20 nM IRAK1-His, 4 nM Eu-W1024-anti-6xHis antibody) and 2 x antibody solution (4 nM Eu-W1024-anti-6xHis antibody). Five microliters of 2 x tracer 236 was dispensed into a 384-well white ProxiPlate^TM, followed by either 5 μ l of 2 x IRAK1/antibody solution or 5 μ l of 2 x antibody solution on a Tempest® dispenser (Formulatrix, Inc., Bedford, MA, USA). The plate was sealed on a Wasp plate sealer (KBiosciences Limited, Basildon, Essex, UK) and centrifuged at 1000 x g for 15 s on a HiG^TM automated centrifuge (BioNex Solutions Inc., San Jose, CA, USA) and incubated at room temperature for 30 min. The plate was then peeled and read on a PHERAstar® FSX (BMG LABTECH Inc., Cary, NC, USA) with a LanthaScreen^TM module at 340/615, 665 nm. The TR-FRET ratio (acceptor emission/donor emission x 10,000) was used as the readout.
A dose-response assay was conducted for each of the compound in the diversified set of 283 hits. Each compound was assayed in an 8-point curve with approximately 4-fold dilutions (subject to Echo dispense volume limits), starting at 30 μ M, and the assays were run in triplicates. The exact concentrations are 30, 7.5, 1.875, 0.469, 0.117, 0.029, 0.007, 0.002 μM . In each plate, three replicates of a staurosporine titration curve starting at 3 μ M were assayed in parallel as a reference.
The IC 50 of each dose-response curve was derived by fitting a four-parameter logistic (4PL) model, shown in Eq. 3, where the respective variables are defined as follows: • A : Minimum asymptote. Response value when x approaches infinity. • D : Maximum asymptote. Response value when x is very small or close to zero. • B : Slope factor (Hill’s slope). Steepness of the curve. • C : Inflection point. The concentration of the analyte that gives half-maximal response. 3 f(x)=A+D-A/1+x/C^B The 4PL model was fitted for each compound with data points for all three replicates all at once. As an additional quality control, 4PL regression models for all sub-micromolar compounds were manually inspected. Computed IC 50 were capped within the range of measured concentrations. In seven cases, where curve fits were erroneous and produced IC 50 values above assay sensitivity range, IC 50 values were reduced to the highest concentration used in the assay (30 μ M).

IRAK1 [2] = molecular target: T1, IRAK1; details: read-out: affinity; cited from earlier work
[3] = 8-point curve from 30 μM, triplicates, 4PL fit

T1 sequence (P51617 whole entry): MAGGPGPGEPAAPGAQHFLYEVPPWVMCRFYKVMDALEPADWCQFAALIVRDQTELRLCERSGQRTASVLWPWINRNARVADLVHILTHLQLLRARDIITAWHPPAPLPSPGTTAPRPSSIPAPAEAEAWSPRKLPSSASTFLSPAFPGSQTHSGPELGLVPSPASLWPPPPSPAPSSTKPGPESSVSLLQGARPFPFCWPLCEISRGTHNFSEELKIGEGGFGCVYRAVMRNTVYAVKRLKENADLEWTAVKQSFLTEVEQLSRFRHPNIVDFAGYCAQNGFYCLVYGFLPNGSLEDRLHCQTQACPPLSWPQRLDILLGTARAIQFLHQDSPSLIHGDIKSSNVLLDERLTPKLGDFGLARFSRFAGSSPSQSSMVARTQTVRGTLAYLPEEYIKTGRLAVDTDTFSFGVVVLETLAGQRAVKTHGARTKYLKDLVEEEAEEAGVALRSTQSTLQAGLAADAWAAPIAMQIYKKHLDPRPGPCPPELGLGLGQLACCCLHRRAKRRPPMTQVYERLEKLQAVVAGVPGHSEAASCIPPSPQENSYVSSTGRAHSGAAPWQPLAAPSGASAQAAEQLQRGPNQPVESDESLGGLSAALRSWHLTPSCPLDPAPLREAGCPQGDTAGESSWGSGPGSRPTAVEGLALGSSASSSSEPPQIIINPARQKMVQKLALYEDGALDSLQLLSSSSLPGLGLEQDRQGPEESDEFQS

Row | pIC50 (IRAK1 [1]; [3]) | IC50 (IRAK1 [1]; [3]) [µM] | DRC result, activity class (IRAK1 [1]) | DRC result, pIC50 (IRAK1 [1]; [3]) | SMILES | pIC50 (IRAK1 [2])
1 | 7.05 | 0.0912 | nanomolar |  | CNc1cc2c(cn1)cc(-c1ccc(F)c(NC(=O)Nc3cc(C(C)(C)C)nn3C)c1)c(=O)n2C(C)C [A1] | 
2 | 7.70 | 0.0191 | nanomolar |  | Cc1nc(Nc2ncc(F)c(-c3cc(F)c4nc(C)n(C(C)C)c4c3)n2)ccc1N1CCN(C(C)C)CC1 [B1] | 
3 | 7.22 | 0.0631 | nanomolar |  | CCN1CCN(Cc2ccc(Nc3ncc(F)c(-c4cc(F)c5nc(C)n(C6CC6)c5c4)n3)nc2)CC1 [B2] | 
4 | 7.00 |  | nanomolar | 7.00 | CC(C)(C)c1cc(NC(=O)NCc2ccc(-c3cnc4cc(-c5ccncc5)ccn34)cc2)n[nH]1 [C1] | 
5 | 7.30 | 0.0525 | nanomolar |  | CC(C)Cc1ccnc(NC(=O)Cc2ccc(-c3cnc4cc(-c5ccncc5)ccn34)cc2F)c1 [C2] | 
6 |  |  |  |  | C=CC(=O)Nc1cccc(C(=O)Nc2ccc(NC(=O)c3cccc(-c4ccn[nH]4)n3)cc2)c1 [JH-X-119-01] | 8.05
